Test results from patent publication US11192863B2, “Antiviral compounds and methods” (Biotron Limited, priority 2003, dated 2021).
Where two headings read alike, the source gives them in different places.

What was measured:
[1] = system: MHV (strain MHV-A59); conditions: L929 cells
[2] = biological target: Vpu protein (Human immunodeficiency virus type 1 group M subtype B, UniProt P05919); conditions: halo of growth score between zero and six; XL1-blue E. coli with pPL-Vpu, no adenine, 37° C.
Sequence of Vpu protein (P05919 whole entry): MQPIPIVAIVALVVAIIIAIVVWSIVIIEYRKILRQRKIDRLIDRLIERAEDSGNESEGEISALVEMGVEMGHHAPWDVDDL

SMILES | Percent reduction in Plaque number/# experiments ([1]; 1 uM) | Percent reduction in Plaque number/# experiments ([1]; 10 uM) | Percent reduction in Plaque number/# experiments ([1]; 20 uM) | Vpu Inhibition (score/# of times tested) [2] | Toxic (noted in place of plaque reduction) ([1]; 20 uM)
NC(N)=NC(=O)c1nc(Cl)c(N2CCCCCC2)nc1O [3-hydroxy-5-hexamethyleneimino-amiloride] | 1/1% | 22/2% | 16/1% |  | 
N=C(NC(=O)c1ccc2ccccc2c1)NC(=O)c1ccc2ccccc2c1 [N,N′-bis(2-napthoyl)guanidine] | 3/1% | 3/2% | 5/1% |  | 
C/C(=C\c1ccc(N(C)C)cc1)C(=O)NC(=N)N [[(E)-3-(4-Dimethylaminophenyl)-2-methylacryloyl]guanidine] | 37/1% | 45/1% | 56/1% |  | 
N=C(N)NC(=O)/C=C/c1ccc([N+](=O)[O-])cc1 [(4-Nitrocinnamoyl)guanidine] | 40/3% | 75/3% | 97/1% |  | 
NC(N)=NC(=O)c1nc(Cl)c(-c2ccccc2)nc1N [N-amidino-3-amino-5-phenyl-6-chloro-2-pyrazinecarboxamide] | 9/1% | 20/2% | 20/1% | 0.5/11 score | 
O=C(/C=C/c1ccccc1)NC(=Nc1ccccc1)NC(=O)/C=C/c1ccccc1 [N,N′-bis-(cinnamoyl)-N″-phenylguanidine] | 31/1% | 38/2% | 16/1% | 0.94/2 score | 
N=C(N)NC(=O)c1ccccc1 [Benzyoylguanidine, Benzoylguanidine] | 14/1% | 39/2% | 22/1% | 0.88/2 score | 
CN(C)C(=N)NC(=O)/C=C/c1ccccc1 [N-Cinnamoyl-N′,N′-dimethylguanidine] | 24/2% | 65/3% | 92/2% |  | 
N=C(N)NC(=O)/C=C/c1ccccc1[N+](=O)[O-] [(2-Nitrocinnamoyl)guanidine] | 47/1% | 77/2% | 97/1% | 0.4/2 score | 
O=C(/C=C/c1ccccc1)N=C(Nc1ccccc1)Nc1ccccc1 [N″-Cinnamoyl-N,N′-diphenylguanidine] | 34/1% | 72/2% | 97/1% |  | 
N=C(N)NC(=O)/C=C/C=C/c1ccccc1Br [5-(2′-bromophenyl)penta-2,4-dienoylguanidine] | 57/1% | 100/1% |  |  | Toxic
N=C(NC(=O)c1cccc2ccccc12)NC(=O)c1cccc2ccccc12 [N,N′-bis(1-napthoyl)guanidine] | 35/1% | 52/2% | 58/1% |  | 
NC(N)=NC(=O)c1cnc2ccccc2c1 [3-quinolinoylguanidine] | 30/1% | 36/2% | 27/1% |  | 
Cl.NC(N)=NC(=O)c1nc(Cl)c(N)nc1N [Amiloride•HCl, reference compound] | −5/1% | 18/1% | 21/1% |  | 
NC(N)=NC(=O)c1nc(-c2ccccc2)c(N)nc1N [N-amidino-3,5-diamino-6-phenyl-2-pyrazinecarboxamide] | 25/1% | 39/2% | 53/1% |  | 
